The target of one experiment is human 5-HT7bR (Homo sapiens, UniProt P34969). The experiment is described as follows: Radioligand binding assay, [3H]-5-CT displacement. As to conditions: read-out: Ki 5-HT7; HEK293 cell membranes, 0.6 nM [3H]-5-CT, 37 °C 1 h.
Another experiment addresses human 5-HT2AR (Homo sapiens, UniProt P28223). The experiment is described as follows: Radioligand binding assay, [3H]-Ketanserin displacement. The following applies: read-out: Ki 5-HT2A; HEK293 cell membranes, 1.0 nM [3H]-Ketanserin, 37 °C 1 h.
The target of the next experiment is human 5-HT6R (Homo sapiens, UniProt P50406). The experiment is described as follows: Radioligand binding assay, [3H]-LSD displacement. As to conditions: read-out: Ki 5-HT6; HEK293 cell membranes, 2 nM [3H]-LSD, 37 °C 1 h.
Sequence of human 5-HT6R (P50406 whole entry): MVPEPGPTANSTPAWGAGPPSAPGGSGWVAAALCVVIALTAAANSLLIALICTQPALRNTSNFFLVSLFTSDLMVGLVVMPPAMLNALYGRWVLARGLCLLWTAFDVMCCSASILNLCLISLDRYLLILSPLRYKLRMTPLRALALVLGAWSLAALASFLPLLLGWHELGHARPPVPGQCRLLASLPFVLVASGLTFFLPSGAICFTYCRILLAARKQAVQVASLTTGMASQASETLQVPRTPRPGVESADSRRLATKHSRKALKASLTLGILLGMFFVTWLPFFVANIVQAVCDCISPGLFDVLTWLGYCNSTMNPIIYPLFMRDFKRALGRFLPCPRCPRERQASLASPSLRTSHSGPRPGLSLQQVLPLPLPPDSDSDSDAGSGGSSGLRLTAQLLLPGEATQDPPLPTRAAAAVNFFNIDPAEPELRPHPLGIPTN
For another experiment, the target named is 5-HT1AR. As to conditions: affinity toward 5-HT1AR; cited from earlier work.

pKi: −log10 of the molar value.

Sequence of human 5-HT2AR (P28223 whole entry): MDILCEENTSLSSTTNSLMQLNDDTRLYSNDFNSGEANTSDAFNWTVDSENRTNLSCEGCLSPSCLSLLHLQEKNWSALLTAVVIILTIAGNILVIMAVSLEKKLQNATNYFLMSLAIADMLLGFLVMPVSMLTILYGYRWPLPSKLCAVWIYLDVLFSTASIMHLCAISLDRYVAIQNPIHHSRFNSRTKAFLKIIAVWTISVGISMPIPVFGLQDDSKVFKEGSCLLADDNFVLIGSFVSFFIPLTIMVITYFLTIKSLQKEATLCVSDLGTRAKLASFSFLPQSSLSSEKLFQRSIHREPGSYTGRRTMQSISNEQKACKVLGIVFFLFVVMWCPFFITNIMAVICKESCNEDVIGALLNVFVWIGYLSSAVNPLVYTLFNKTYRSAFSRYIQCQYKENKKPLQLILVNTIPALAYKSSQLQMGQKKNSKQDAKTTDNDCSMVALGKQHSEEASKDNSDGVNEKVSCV
Sequence of human 5-HT7bR (P34969 1-432 limits assumed): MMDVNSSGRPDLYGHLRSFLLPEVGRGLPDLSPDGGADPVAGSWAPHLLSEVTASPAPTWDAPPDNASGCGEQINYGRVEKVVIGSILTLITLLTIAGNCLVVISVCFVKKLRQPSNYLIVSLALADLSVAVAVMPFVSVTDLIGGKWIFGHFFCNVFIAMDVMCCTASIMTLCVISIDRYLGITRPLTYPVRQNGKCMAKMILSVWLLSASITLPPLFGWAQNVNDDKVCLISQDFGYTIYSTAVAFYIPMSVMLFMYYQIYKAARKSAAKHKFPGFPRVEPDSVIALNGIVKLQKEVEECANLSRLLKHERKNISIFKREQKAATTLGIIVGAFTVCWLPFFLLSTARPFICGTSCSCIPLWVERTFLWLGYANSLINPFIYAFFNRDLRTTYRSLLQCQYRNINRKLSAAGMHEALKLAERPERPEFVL

As a reminder, the pKi is the negative decadic logarithm of the Ki, by convention in mol/L. As for `COC(=O)c1ccc(C2c3c(-c4ccccc4O)n[nH]c3C(=O)N2Cc2ccncc2)cc1` (stereo not shown) [D174-0581], the pKi is 5.19 at human 5-HT7bR, 5.43 at human 5-HT2AR and 4.87 on human 5-HT6R.

In the case of `COc1ccccc1N1CCN(CCCCNC(=O)C23CC4CC(C2)C(C4)C3)CC1` [NBUMP, 4-[4-(1-noradamantanecarboxamido)butyl]-1-(2-methoxyphenyl)piperazine], at 5-HT1AR, the negative logarithm of the Ki (pKi) is 10.00.

The values are drawn from article PMC5361891 (Journal of chemical information and modeling, 2017).
